# BindingDB's records for doi:10.1016/j.bmcl.2008.07.123 (Bristol-Myers Squibb, 2008)
# pIC50: −log10 of the molar value.
# Test: Antagonist activity at CCR2 in human PBMC assessed as MCP1-induced chemotaxis
row,Compound,pIC50
1,CCCCN1CCC(NCc2ccc(SC)cc2)C(NC(=O)CNC(=O)c2cc(C(F)(F)F)ccc2N)C1 (racemic) [(+/-)-2-amino-N-(2-(1-butyl-4-(4-(methylthio)benzylamino)piperidin-3-ylamino)-2-oxoethyl)-5-(trifluoromethyl)benzamide],7.72
2,CSc1ccc(C(=O)NC2CCN(C)CC2NC(=O)CNC(=O)c2cc(C(F)(F)F)ccc2N)cc1 (racemic) [(+/-)-2-amino-N-(2-(1-methyl-4-(4-(methylthio)benzamido)piperidin-3-ylamino)-2-oxoethyl)-5-(trifluoromethyl)benzamide],7.41
3,CSc1ccc(CNC2CCN(C)CC2NC(=O)CNC(=O)c2cc(C(F)(F)F)ccc2N)cc1 (racemic) [(+/-)-2-amino-N-(2-(1-methyl-4-(4-(methylthio)benzylamino)piperidin-3-ylamino)-2-oxoethyl)-5-(trifluoromethyl)benzamide],7.56
4,CCCN1CCC(NCc2ccc(SC)cc2)C(NC(=O)CNC(=O)c2cc(C(F)(F)F)ccc2N)C1 (racemic) [(+/-)-2-amino-N-(2-(4-(4-(methylthio)benzylamino)-1-propylpiperidin-3-ylamino)-2-oxoethyl)-5-(trifluoromethyl)benzamide],8.27
5,CSc1ccc(CNC2CCNCC2NC(=O)CNC(=O)c2cc(C(F)(F)F)ccc2N)cc1 (racemic) [(+/-)-2-amino-N-(2-(4-(4-(methylthio)benzylamino)piperidin-3-ylamino)-2-oxoethyl)-5-(trifluoromethyl)benzamide],6.55
6,CCCN1CCC(NCc2ccc(SC)cc2)C(NC(=O)CNC(=O)c2cc(C(F)(F)F)ccc2NC(=O)N2CCCC2)C1 (racemic) [(+/-)-N-(2-(2-(4-(4-(methylthio)benzylamino)-1-propylpiperidin-3-ylamino)-2-oxoethylcarbamoyl)-4-(trifluoromethyl)phenyl)pyrrolidine-1-carboxamide],8.32
7,CCCN1CCC(NCc2ccc(SC)cc2)C(NC(=O)CNC(=O)c2cc(C(F)(F)F)ccc2NC(=O)NC)C1 (racemic) [(+/-)-N-(2-(4-(4-(methylthio)benzylamino)-1-propylpiperidin-3-ylamino)-2-oxoethyl)-2-(3-methylureido)-5-(trifluoromethyl)benzamide],8.10

# Second part, the compound after the results:
row,pIC50,Compound
1,7.76,CCCCN1CCC(NC(=O)c2ccc(SC)cc2)C(NC(=O)CNC(=O)c2cc(C(F)(F)F)ccc2N)C1 (racemic) [(+/-)-2-amino-N-(2-(1-butyl-4-(4-(methylthio)benzamido)piperidin-3-ylamino)-2-oxoethyl)-5-(trifluoromethyl)benzamide]
2,7.60,CCCN1CCC(NC(=O)c2ccc(SC)cc2)C(NC(=O)CNC(=O)c2cc(N)cc(C(F)(F)F)c2)C1 (racemic) [(+/-)-3-amino-N-(2-(4-(4-(methylthio)benzamido)-1-propylpiperidin-3-ylamino)-2-oxoethyl)-5-(trifluoromethyl)benzamide]
3,7.59,CCCN1CCC(NCc2ccc(SC)cc2)C(NC(=O)CNC(=O)c2cc(N)cc(C(F)(F)F)c2)C1 (racemic) [(+/-)-3-amino-N-(2-(4-(4-(methylthio)benzylamino)-1-propylpiperidin-3-ylamino)-2-oxoethyl)-5-(trifluoromethyl)benzamide]
